Measurements as given in US12421257B2, “Compositions and methods for inhibiting group II intron RNA” (YALE UNIVERSITY, priority 2018, dated 2025).
Values after ≈ are worked out from the molar mass of the structure shown. “Also recorded” adds a separate entry of the source. Read-outs that look alike come from different tables or passages of the source.

How the values were obtained:
C. parapsilosis = test: MIC determination against C. parapsilosis; type: cell-based, Candida parapsilosis; conditions: Lodderomyces parapsilosis; RPMI-1640, 35° C. or 37° C., turbidity after 24 and 48 hours
In short: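 Broth microdilution in RPMI-1640 with C. parapsilosis at 0.5×10^3 to 2.5×10^3 CFU/mL; test compounds 0.25-128 μg/ml final, 1% DMSO. Plates incubated at 35° C or 37° C, turbidity read visually at 24 and 48 h. MIC = lowest concentration without visible growth; triplicates.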

HEK-293T cells = test: Cytotoxicity in HEK-293T cells (Cell Titer Glo); type: cell-based, human; conditions: Homo sapiens, cytotoxicity, 24 hours with compound, read-out: IC50 HEK-293
[1] = test system: ai5γ group II intron (D135 ribozyme); test: Fluorescent D135 ribozyme cleavage assay (IC50); type: biochemical, Saccharomyces cerevisiae
In short: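 D135 ribozyme (20 nM) with double-labeled substrate 17/2 DL (20 nM) in 50 mM MOPS pH 7.0, 100 mM MgCl2, 0.5 M KCl; 19 inhibitor concentrations, 5 nM–1 mM, 10 min at 37 °C, EDTA quench, fluorescence read. Triplicates fit to 4-parameter logistic for IC50; mean±s.e.m.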

[2] = test system: C. parapsilosis COX1 group IIB intron; test: Group II intron splicing in C. parapsilosis by qRT-PCR; type: cell-based, Candida parapsilosis; conditions: 32 μg/mL
ai5γ group II intron = test: Radioanalytic self-splicing assay of SE RNA (Ki); type: biochemical, Saccharomyces cerevisiae; conditions: 8 mM MgCl2, 100 mM KCl, pH 7.5, 30° C.
Method: Internally labeled SE RNA (2 nM) was incubated with various concentrations of inhibitor compound under near-physiological conditions (in 50 mM MOPS, pH 7.5, 8 mM MgCl2, 100 mM KCl) at 30° C. Aliquots at different time points were quenched and analyzed on 5% denaturing polyacrylamide gel as previously described (Daniels et al., 1996, Journal of molecular biology, 256:31-49). Data were fit to a single-exponential equation to determine the first order rate constants (kobs). The latter were then plotted against the concentration of the inhibitor and fit to the equation for non-competitive inhibition to determine Ki values: kobs=kmax/(1+[I]/Ki), where kobs and kmax are the first order rate constants measured in the presence and in the absence of the inhibitor, respectively, [I] is the concentration of the inhibitor and Ki is the inhibition constant. Experiments were performed four times for API-014, three times for APY-090, Intronistat A, and Intronistat B and twice for the remaining compounds to ensure reproducibility. Data represent average±s.e.m.

S. cerevisiae = test: Yeast respiration assay in S. cerevisiae (MIC in YPD / YPGE); type: cell-based, Saccharomyces cerevisiae; conditions: Saccharomyces cerevisiae, 30° C.
Method: Yeast respiration assays were conducted either in liquid YPD media (BD Bacto Yeast Extract, BD Bacto Peptone, 2% glucose) or in YPGE media (BD Bacto Yeast Extract, BD Bacto Peptone, 3% glycerol, 3% ethanol), essentially as described for the antifungal MIC assays (see below). To initiate these experiments, 100 μl of a fresh stock solution was prepared for each compound (3.2 mg/ml for Amphotericin B and 12.8 mg/ml for each test compounds) in DMSO. This concentrated stock solution was placed in the first well of 12-well row on a 96-well plate. The subsequent nine wells in this row contained 50 μl of DMSO for serial dilution. From the first well, 50 μl of the compound stock was withdrawn, transferred to the second well and mixed. This process was repeated from the second and subsequent wells, resulting in a 1:2 serial dilution of the stock into DMSO. Wells 11 and 12 contained DMSO only, to be used as no compound control and sterility control, with no inoculum added, respectively. After preparing this plate, 2.5 μl from each of the 12 wells was transferred to the wells of a separate 96-well plate, each of which contained 122.5 μl of YPD or YPGE medium, resulting in a set of serial dilutions of compound into growth media in a volume of 125 μl. Then 50 μl from each of these dilutions were transferred onto a third 96-well plate (the assay plate) and mixed with an equal volume (50 μl) of freshly prepared yeast inoculum in YPD or YPGE medium set to provide 0.5×10^3 to 2.5×10^3 colony forming units per 1 mL (wells 1-11), or YPD/YPGE alone (sterility control, well 12). The final compound concentration range of the assay was 0.25-128 μg/ml for test compounds and 0.0625-32 μg/ml for Amphotericin B. The final concentration of DMSO was 1%. Plates were incubated at 30° C. and visually analyzed for turbidity after 24 and 48 hours of incubation. The lowest compound concentration at which no growth was apparent is reported as the MIC (Table 1). All experiments were performed in triplicate.

SMILES	MIC (C. parapsilosis) [µg/mL]	IC50 (HEK-293T cells) [µg/mL]	IC50 ([1]; D135 ribozyme cleavage of substrate 17/2 DL, 100 mM MgCl2, 500 mM KCl, 37° C., 10 minutes) [µM]	In vitro inhibitory activity, SAR statement (in words) ([1]; relative to parent scaffold)	Splicing of C. parapsilosis COX1 in vivo (in words) [2]	Ki (ai5γ group II intron) [µM]	MIC (S. cerevisiae; YPD medium, read-out: MIC in YPD (glucose)) [µg/mL]	MIC (S. cerevisiae; YPGE medium, read-out: MIC in YPGE (glycerol)) [µg/mL]
COc1ccc(/C=C2\Oc3cc(O)cc(O)c3C2=O)cc1OC [APY-001, (Z)-2-(3,4-Dimethoxybenzylidene)-4,6-dihydroxybenzofuran-3(2H)-one]	> 128	> 128	> 100	nearly complete loss of activity	this effect was not observed; also recorded: inactive	> 1000		
O=C1/C(=C/c2cc(O)c(O)c(O)c2)Oc2cccc(O)c21 [APY-019, (Z)-4-Hydroxy-2-(3,4,5-trihydroxybenzylidene)benzofuran-3(2H)-one]	16 (≈ 55.9 µM)	> 32					> 128	64 (≈ 224 µM)
